Experiments:
HTT mRNA = test: Splicing RT-qPCR assay, HTT canonical (CJ) and alternative (AJ) junction mRNA; assay type: cell-based; details: Homo sapiens, A673 or K562 cells, 24 hours treatment; for IC50: decrease in CJ mRNA; for AC50: increase in AJ mRNA
Protocol: (§1) Compounds described herein were used to modulate RNA transcript abundance in cells. The expression of a target mRNA was measured by detecting the formation of an exon-exon junction in the canonical transcript (CJ). A compound mediated exon-inclusion event was detected by observing an increase in formation of a new junction with an alternative exon (AJ). Real-time qPCR assays were used to detect these splicing switches and interrogate the potency of various compounds towards different target genes. A high-throughput real time quantitative PCR (RT-qPCR) assay was developed to measure these two isoforms of the mRNA (CJ and AJ) for exemplary genes, such as HTT, SMN2, and MYB, together with a control housekeeping gene, GAPDH or GUSB or PPIA, used for normalization. Briefly, the A673 or K562 cell line was treated with various compounds described herein (e.g., compounds of Formula (I)). After treatment, the levels of the HTT, MYB, or SMN2 mRNA targets were determined from each sample of cell lysate by cDNA synthesis followed by qPCR.
(§2) • Cells-to-CT 1-step kit: ThermoFisher A25602, Cells-to-CT lysis reagent: ThermoFisher 4391851C, TaqMan™ Fast Virus 1-Step Master Mix: ThermoFisher 4444436 • GAPDH: VIC-PL, ThermoFisher 4326317E (Assay: Hs99999905_ml)—used for K562/suspension cell lines • GUSB: VIC-PL, ThermoFisher 4326320E (Assay: Hs99999908_ml)—used for K562/suspension cell lines • PPIA: VIC-PL, ThermoFisher 4326316E (Assay: Hs99999904_ml)—used for A673/adherent cell lines
(§3) The A673 cell line was cultured in DMEM with 10% FBS. Cells were diluted with full growth media and plated in a 96-well plate (15,000 cells in 100 ul media per well). The plate was incubated at 37° C. with 5% CO2 for 24 hours to allow cells to adhere. An 11-point 3-fold serial dilution of the compounds was made in DMSO then diluted in media in an intermediate plate. Compounds were transferred from the intermediate plate to the cell plate with the top dose at a final concentration of 10 uM in the well. Final DMSO concentration was kept at or below 0.25%. The cell plate was returned to the incubator at 37° C. with 5% CO2 for an additional 24 hours.
(§4) The K562 cell line was cultured in IMDM with 10% FBS. For K562, cells were diluted with full growth media and plated in either a 96-well plate (50,000 cells in 50 uL media per well) or a 384-well plate (8,000-40,000 cells in 45 uL media per well). An 11-point 3-fold serial dilution of the compounds were made in DMSO then diluted in media in an intermediate plate. Compound was transferred from the intermediate plate to the cell plate with the top dose at a final concentration of 10 uM in the well. Final DMSO concentration was kept at or below 0.25%. Final volume was 100 uL for 96-well plate and 50 uL for 384-well plate. The cell plate was then placed in an incubator at 37° C. with 5% CO2 for 24 hours.
(§5) The cells were then gently washed with 50 uL-100 uL cold PBS before proceeding to addition of lysis buffer. 30 uL-50 μL of room temperature lysis buffer with DNAse I (and optionally RNAsin) was added to each well. Cells were shaken/mixed thoroughly at room temperature for 5-10 minutes for lysis to take place and then 3 uL-5 μL of room temperature stop solution was added and wells were shaken/mixed again. After 2-5 minutes, the cell lysate plate was transferred to ice for RT-qPCR reaction setup. The lysates could also be frozen at −80° C. for later use.
(§6) In some cases, a direct lysis buffer was used. An appropriate volume of 3×lysis buffer (10 mM Tris, 150 mM NaCl, 1.5%-2.5% Igepal and 0.1-1 U/uL RNAsin, pH 7.4) was directly added to either K562 or A673 cells in media and mixed by pipetting 3 times. The plates were then incubated at room temperature with shaking/rocking for 20-50 minutes to allow for lysis to take place. After this time, the cell lysate plate was transferred to ice to set up for the RT-qPCR reactions. The lysates could also be frozen at −80° C. for later use. […]

MYB mRNA = test: Splicing RT-qPCR assay, MYB canonical (CJ) and alternative (AJ) junction mRNA; assay type: cell-based; details: Homo sapiens, A673 or K562 cells, 24 hours treatment; for IC50: decrease in CJ mRNA; for AC50: increase in AJ mRNA
Protocol: as §1, §2, §3, §4, §5, §6

HTT CJ mRNA = test: Gene panel canonical junction qPCR assay, HTT; assay type: cell-based; details: Homo sapiens, larger gene panel, read-out: HTT IC50 (decrease in CJ mRNA levels)
Protocol: as §1, §3, §4
(§7) The data analysis was performed by first determining the ΔCt vs the housekeeper gene. This ΔCt was then normalized against the DMSO control (ΔΔCt) and converted to RQ (relative quantification) using the 2^(−ΔΔCt) equation. The RQ were then converted to a percentage response by arbitrarily setting an assay window of 3.5 and 4.0 ΔCt for HTT-CJ and MYB-CJ respectively and an assay window of 9 and 3 ΔCt for HTT-AJ and MYB-AJ in 96 well format (50,000 K562 cells/well and 15,000 A673 cells per well) and an assay window of 3 and 4 ΔCt for HTT-CJ and MYB-CJ respectively and an assay window of 5 and 3 ΔCt for HTT-AJ and MYB-AJ respectively in 384 well format (8,000 K562 cells/well example). […] The percentage response was then fitted to the 4 parametric logistic equation to evaluate the concentration dependence of compound treatment. The increase in AJ mRNA is reported as AC50 (compound concentration having […] in AJ increase) while the decrease in CJ mRNA levels is reported as IC50 (compound concentration having 50% response in CJ decrease).
(§8) Additional studies were carried out for a larger panel of genes using the protocol provided above. The junction between flanking upstream and downstream exons was used to design canonical junction qPCR assays. At least one of the forward primer, reverse primer or the CY5-labeled 5′ nuclease probe (with 3′ quencher such as ZEN/Iowa Black FQ) was designed to overlap with the exon junction to capture the CJ mRNA transcript. […]

MYB CJ mRNA = test: Gene panel canonical junction qPCR assay, MYB; assay type: cell-based; details: Homo sapiens, larger gene panel, read-out: MYB IC50 (decrease in CJ mRNA levels)
Protocol: as §1, §3, §4, §7, §8

SMN2 CJ mRNA = test: Gene panel canonical junction qPCR assay, SMN2; assay type: cell-based; details: Homo sapiens, larger gene panel, read-out: SMN2 IC50 (decrease in CJ mRNA levels)
Protocol: as §1, §3, §4, §7, §8

Target C CJ mRNA = test: Gene panel canonical junction qPCR assay, Target C; assay type: cell-based; details: Homo sapiens, larger gene panel, read-out: Target C IC50 (decrease in CJ mRNA levels)
Protocol: as §1, §3, §4, §7, §8

[1] = system: HiBiT-tagged MYB protein in K562 cells; test: HiBiT protein abundance assay, MYB; assay type: cell-based, human; details: HiBiT-modified K562 cells, 24 hours, luminescence
Protocol: (§9) Compounds described herein were used to screen for effects on quantitative protein abundance using a HiBit assay system (Promega). Quantitative protein abundance was determined by measuring the protein levels of HiBit-tagged protein targets expressed in cell culture via luminescence using the Nano-Glo HiBiT Lytic Detection System, which uses a split complementation assay format to reconstitute NanoBiT enzyme to generate a luminescent signal. A protein abundance assay was developed such that endogenous protein targets could be modified with the HiBiT peptide tag and their abundance could be assessed after compound treatment. Briefly, K562 cell lines containing a HiBiT-modification were treated with various compounds described herein (e.g., compounds of Formulas (I), (II), or (III)). After treatment for 24 hours, the protein abundance of a specific target was determined by measuring luminescence.
(§10) • Promega Nano-Glo HiBiT Lytic Detection System (cat #N3030) • Corning 384-well TC-treated microplates (cat #3570) • Synthego Engineered Cells Knock-In Clones
(§11) Cells were maintained in IMDM with 10% FBS. Before the assay, cells were diluted with […] growth media (IMDM+1% FBS media) and were seeded in a 384-well plate at a density of 10000 cells/well (for each cell line listed in Table 5). Each compound was prepared as a 10-point 3-fold serial dilution in DMSO with the top dose at a final concentration of 10 μM in the well. Unmodified K562 cells were added at the previously specified density with DMSO to serve as an assay baseline and positive control (PC) and DMSO only with the respective modified cell lines was added to the negative control (NC) columns. Final DMSO concentration was kept at or below 0.25%. Treated cell plates were placed in an incubator at 37° C. with 5% CO2 for 24 hours. After 24 hours, 25 μL of Complete HiBit Lytic reagent was added to each well at room temperature (e.g. one plate requiring 10 mL Lytic Buffer, 100 μL LgBiT Protein, 200 μL Lytic Substrate), shaken for 5 minutes at 600 RPM, then left to sit for 10 minutes for signal to stabilize before reading on a Spark Cyto plate reader (Tecan) with a 500 ms measurement time.
(§12) To determine compound effects on protein abundance of each target in Table 5, the percent response for each respective cell line was calculated at each compound concentration as follows:
(§13) For the normalized response at each concentration, a four-parameter logistical regression was fit to the data and the response was interpolated at the 50% value to determine a concentration for protein abundance at 50% (IC50) the untreated control.

[2] = system: HiBiT-tagged Target C protein in K562 cells; test: HiBiT protein abundance assay, Target C; assay type: cell-based, human; details: HiBiT-modified K562 cells, 24 hours, luminescence
Protocol: as §9, §10, §11, §12, §13

[3] = system: HiBiT-tagged HTT protein in K562 cells; test: HiBiT protein abundance assay, HTT; assay type: cell-based, human; details: HiBiT-modified K562 cells, 24 hours, luminescence
Protocol: as §9, §10, §11, §12, §13

[4] = Cell Titer Glo 2.0 cell viability assay; details: human, K562 cells

SMILES | IC50 (HTT mRNA) [µM] | AC50 (HTT mRNA) [µM] | IC50 (MYB mRNA) [µM] | AC50 (MYB mRNA) [µM] | IC50 (HTT CJ mRNA) [µM] | IC50 (MYB CJ mRNA) [µM] | IC50 (SMN2 CJ mRNA) [µM] | IC50 (Target C CJ mRNA) [µM] | IC50 [1] [µM] | IC50 [2] [µM] | IC50 [3] [µM] | GI50 at 72 h [4] [µM]
Cc1cn2cc(-c3cc4ncn([C@H]5CNCC[C@@H]5O)c(=O)c4s3)cc(F)c2n1 (relative stereo) [Compound 281, 6-{8-fluoro-2-methylimidazo[1,2-a]pyridin-6-yl}-3-[(trans)-4-hydroxypiperidin-3-yl]thieno[3,2-d]pyrimidin-4-one] | 1 to 10 | 1 to 10 | 1 to 10 | 1 to 10 | 1 to 10 | 1 to 10 | 1 to 10 | 1 to 10 |  |  |  | 
CN1CCN(c2nc3ncn(-c4ccc5nn(C)cc5c4)c(=O)c3s2)CC1 [Compound 182, 6-(2-methyl-2H-indazol-5-yl)-2-(4-methylpiperazin-1-yl)thiazolo[4,5-d]pyrimidin-7(6H)-one] | 1 to 10 | 1 to 10 |  |  | 1 to 10 |  | 1 to 10 |  |  |  |  | 
Cc1cc(-c2cn3c(=O)cc(N4CCN(C)CC4)nc3s2)cc2cn(C)nc12 [Compound 183, 2-(2,7-dimethyl-2H-indazol-5-yl)-7-(4-methylpiperazin-1-yl)-5H-thiazolo[3,2-a]pyrimidin-5-one] | > 10 | > 10 | > 10 | > 10 | > 10 | > 10 | 1 to 10 | > 10 |  |  |  | 
Cc1cn2cc(-c3cn4c(=O)cc(N5CCN(C)CC5)nc4s3)cc(F)c2n1 [Compound 184] | > 10 | > 10 | > 10 | 1 to 10 | > 10 | > 10 | 1 to 10 |  |  |  |  | 
Cc1cn2cc(-c3cc4ncn([C@H]5CCNC[C@@H]5O)c(=O)c4s3)cc(F)c2n1 [Compound 280] | 0.1 to 1 | 0.1 to 1 | 0.1 to 1 | 0.1 to 1 | 0.1 to 1 | 0.1 to 1 | 0.1 to 1 | 0.1 to 1 |  |  |  | 
Cc1c(O)c(-c2nc3c(=O)n(C4CCNCC4)cnc3s2)cc2cn(C)nc12 [Compound 283] |  |  |  |  |  |  |  |  | 1 to 10 | 1 to 10 | 1 to 10 | 1 to 10
O=c1c2sc(-c3ccc(-c4cn[nH]c4)cc3O)nc2ncn1C1CCNCC1 [Compound 334] |  |  |  |  |  |  |  |  | > 10 | > 10 | > 10 | > 10
COc1c(-c2nc3ncn(C4CCNCC4)c(=O)c3s2)cc2cn(C)nc2c1C [Compound 335, 2-(6-methoxy-2,7-dimethylindazol-5-yl)-6-(piperidin-4-yl)-[1,3]thiazolo[4,5-d]pyrimidin-7-one] |  |  |  |  |  |  |  |  | > 10 | > 10 | > 10 | > 10
Cc1cc(-c2cc3ccn(C4CCN(C)CC4)c(=O)c3s2)cc2cn(C)nc12 [Compound 807] | 0.1 to 1 | 0.1 to 1 | 0.1 to 1 | 0.1 to 1 | 0.1 to 1 | 0.1 to 1 | < 0.1 | 1 to 10 |  |  |  | 1 to 10
